Test results: patent US5578570A, “Method of treating septic shock using thymosin β4” (The George Washington University Medical Center, priority 1994, dated 1996)

Assays:
Format in all cases: in vivo
PAF = PAF blood levels in mice after lethal dose of endotoxin; details: endotoxin 60 mg/kg + Tβ4 100 μg administered simultaneously; for PAF (plasma levels): Table IX; for PAF (serum levels): Table XII
Source text: (§1) Using the same methods and materials as in examples 1-3, the effect which Tβ4 has on blood levels of IL-1α, TNF-α, PAG, Txβ2 and 6-keto-PGF1 α, which are pathological mediators of endotoxin induced lethality, was studied.

6-keto-PGF1 = 6-keto-PGF1 levels in a septic shock model in rat; details: rats with septic shock + Tβ4 1 mg/rat × 3
Source text: (§2) Using a septic shock model in rats (Sprague-Dawley, male, 200-225 g each), the effect of thymosin β4 alone and together with antibiotics was studied. Peritonitis was induced in rats in the following way. A 1-cm incision was made into the peritoneal which exposed the cecum. A tight ligature was placed around the cecum with 4-0 suture distal to the insertion of the small bowel, forming an area of devitalized tissue while maintaining bowel continuity. A puncture wound was made with 16-gauge needle into the anti-mesenteric surface of the cecum and a small amount of fecal contents was expressed through the wound. The cecum was replaced into the peritoneal cavity, and the anterior peritoneal wall and skin were closed with surgical staples. Each animal was given a bolus of normal saline (15 ml/kg) for hydration and allowed to recover overnight.
(§3) The results presented in Tables XV to XVIII below show effects of Tβ4 respectively on rat cytokine levels, blood malonyldialdehyde levels, glutathione levels and arachidonic acid metabolic levels.

6-keto-PGF1α = 6-keto-PGF1α plasma levels in mice after lethal dose of endotoxin; details: Table XI, endotoxin 60 mg/kg + Tβ4 100 μg administered simultaneously
Source text: as §1

IL1 α = assay: IL1α levels in a septic shock model in rat; details: rats with septic shock + Tβ4 1 mg/rat × 3
Source text: as §2, §3

Rats with Septic Shock = assay: Survival of Sprague-Dawley rats in septic shock model (peritonitis); details: for Survival of rats (number alive): Table XIV, septic shock + antibiotic (gentamicin sulfate, 1 mg/rat) + thymosin β4 1 mg/rat × 3 (0, 2, 4 hr post induction of peritonitis), 10 rats at 0 hr; for Number of Rats Alive: septic shock + Tβ4 1 mg/rat × 3, 10 rats at 0 h
Source text: as §2

cGMP = cGMP cerebellar levels in mice treated with lethal doses of endotoxin; details: endotoxin 60 mg/kg i.p. + Tβ4 0.8 mg/kg i.p.
Source text: The results presented in Tables III-V below show effects of Tβ4 respectively on mice cerebellar cGMP levels, blood serum TNF-α levels, and blood serum TNF-α and IL-1α levels.

[1] = test system: blood free radical levels; assay: Blood free radical levels; details: compared with SOD
endotoxic mice = assay: Survival of Swiss Webster mice following lethal endotoxin dose and Tβ4; details: for Number of Mice Alive: Table II, 8 mice at 0 hr.
Description: Swiss-Webster mice 4-6 weeks of age (20-25 g) were housed 6 per cage. The mice were divided into 2 groups: endotoxic mice (endotoxin 60 mg/kg i.p. in acute treatment) and endotoxic mice treated with Tβ4, 5 minutes and 2, 4, 6, 8, 10, 12, 14, 16, 18, 20, 22, 24 hours post administration of the endotoxin. Survival was recorded 2 times a day for 7 days.
Swiss-Webster mice 4-6 weeks of age (20-25 g) were divided into groups as follows.
1. Mice treated with a lethal dose of endotoxin (60 mg/kg).
2. […]
3. […]
4. […]

Substance: Thymosin β4 [Tβ4]
- PAF (plasma levels) (PAF; 0.5 hr.): 63 ± 7 pg/mL
- PAF (plasma levels) (PAF; 1 hr): 161 ± 17 pg/mL
- PAF (plasma levels) (PAF; 2 hr): 66 ± 5 pg/mL
- PAF (plasma levels) (PAF; 3 hr): 46 ± 5 pg/mL
- PAF (serum levels) (PAF; 1 hr): 807 pg/mL
- PAF (serum levels) (PAF; 3 hr): 591 pg/mL
- PAF (serum levels) (PAF; 5 hr): 496 pg/mL
- 6-keto-PGF1 (6-keto-PGF1): 829 ± 59 pg/mL
- 6-keto-PGF1α (plasma levels) (6-keto-PGF1α; 0.5 hr.): 141 ± 9 pg/mL
- 6-keto-PGF1α (plasma levels) (6-keto-PGF1α; 1 hr): 261 ± 23 pg/mL
- 6-keto-PGF1α (plasma levels) (6-keto-PGF1α; 2 hr): 147 ± 19 pg/mL
- 6-keto-PGF1α (plasma levels) (6-keto-PGF1α; 3 hr): 121 ± 13 pg/mL
- IL1 α (IL1 α): 853 ± 62 pg/mL
- Survival of rats (number alive) (Rats with Septic Shock; 24 hr): 4
- Survival of rats (number alive) (Rats with Septic Shock; 48 hr): 3
- Survival of rats (number alive) (Rats with Septic Shock; 72 hr): 3
- Number of Rats Alive (Rats with Septic Shock; Table XIX, 24 h): 3
- Number of Rats Alive (Rats with Septic Shock; Table XIX, 48 h): 3
- Number of Rats Alive (Rats with Septic Shock; Table XIX, 72 h): 3
- Number of Rats Alive (Rats with Septic Shock; Table XX, 24 h): 4
- Number of Rats Alive (Rats with Septic Shock; Table XX, 48 h): 3
- Number of Rats Alive (Rats with Septic Shock; Table XX, 72 h): 3
- Cerebellar cortex cyclic GMP (cGMP): 12.1 ± 0.9 pmol per mg/protein
- blood free radical levels (in words) [1]: reduce blood free radical levels almost as much as SOD
- protective activity on endotoxin lethality (in words) (endotoxic mice; 10 μg Tβ4): sometimes shown positive activity
- Survival (No. mice alive) (endotoxic mice; Table I, endotoxin 60 mg/kg + Tβ4 100 μg 1x, 24 hrs, 7 mice at 0 hrs): 4
- Survival (No. mice alive) (endotoxic mice; Table I, endotoxin 60 mg/kg + Tβ4 100 μg 1x, 48 hrs, 7 mice at 0 hrs): 3
- Survival (No. mice alive) (endotoxic mice; Table I, endotoxin 60 mg/kg + Tβ4 100 μg 1x, 72 hrs, 7 mice at 0 hrs): 3
- Survival (No. mice alive) (endotoxic mice; Table I, endotoxin 60 mg/kg + Tβ4 100 μg 2x, 24 hrs, 7 mice at 0 hrs): 4
- Survival (No. mice alive) (endotoxic mice; Table I, endotoxin 60 mg/kg + Tβ4 100 μg 2x, 48 hrs, 7 mice at 0 hrs): 4
- Survival (No. mice alive) (endotoxic mice; Table I, endotoxin 60 mg/kg + Tβ4 100 μg 2x, 72 hrs, 7 mice at 0 hrs): 4
- Survival (No. mice alive) (endotoxic mice; Table I, endotoxin 60 mg/kg + Tβ4 100 μg 3x, 24 hrs, 7 mice at 0 hrs): 7
- Survival (No. mice alive) (endotoxic mice; Table I, endotoxin 60 mg/kg + Tβ4 100 μg 3x, 48 hrs, 7 mice at 0 hrs): 7
- Survival (No. mice alive) (endotoxic mice; Table I, endotoxin 60 mg/kg + Tβ4 100 μg 3x, 72 hrs, 7 mice at 0 hrs): 7
- Number of Mice Alive (endotoxic mice; endotoxin 60 mg/kg + Tβ4 100 μg 3x, 24 hr.): 8
- Number of Mice Alive (endotoxic mice; endotoxin 60 mg/kg + Tβ4 100 μg 3x, 48 hr.): 8
- Number of Mice Alive (endotoxic mice; endotoxin 60 mg/kg + Tβ4 100 μg 3x, 72 hr.): 8
- Number of Mice Alive (endotoxic mice; endotoxin 60 mg/kg + Tβ4 100 μg 3x, 7 day): 8
- Number of Mice Alive (endotoxic mice; endotoxin 60 mg/kg + Tβ4 100 μg 3x, 14 day): 8
- Survival (No. mice alive) (endotoxic mice; Table VI, endotoxin 60 mg/kg + Tβ4 10 μg 3x, immediately following, 2 and 4 hrs after endotoxin, 24 hrs, 8 mice at 0 hrs): 8
- Survival (No. mice alive) (endotoxic mice; Table VI, endotoxin 60 mg/kg + Tβ4 10 μg 3x, immediately following, 2 and 4 hrs after endotoxin, 48 hrs, 8 mice at 0 hrs): 6
- Survival (No. mice alive) (endotoxic mice; Table VI, endotoxin 60 mg/kg + Tβ4 10 μg 3x, immediately following, 2 and 4 hrs after endotoxin, 72 hrs, 8 mice at 0 hrs): 6
- Survival (No. mice alive) (endotoxic mice; Table VI, endotoxin 60 mg/kg + Tβ4 10 μg 3x, immediately following, 2 and 4 hrs after endotoxin, 96 hrs, 8 mice at 0 hrs): 6
- Survival (No. mice alive) (endotoxic mice; Table VI, endotoxin 60 mg/kg + Tβ4 10 μg 3x, immediately following, 2 and 4 hrs after endotoxin, 120 hrs, 8 mice at 0 hrs): 6
